From patent US10703821B2, “Method for stimulating or enhancing proliferation of cells by activating the mucin 1 (MUC1) receptor” (MINERVA BIOTECHNOLOGIES CORPORATION, priority 2005, dated 2020)

Tested on: PSMGFR region of MUC1
Test: western blot of ERK2 phosphorylation, competition with anti-PSMGFR
Type: cell-based
Source text: FIG. 6 is a western blot of a competition experiment in which small molecules that bind to the PSMGFR region of MUC1 compete with anti-PSMGFR for binding to the site. […] The chemical formula for the competitor compound MN 9 referred to in this figure is […]

O=C(c1ccc2ccccc2c1)N1CCc2c([nH]c3ccccc23)C1c1ccc(C(F)(F)F)cc1 (centres unmarked) [MN 9]
binding of anti-PSMGFR to the PSMGFR site in competition (in the presence of competitor small molecule): the antibody does not bind
ERK2 phosphorylation (in the presence of competitor small molecule and anti-PSMGFR): ERK2 phosphorylation is inhibited
